Results taken from patent US20200397894A1, “COMPOSITIONS AND METHODS FOR TREATING CANCER” (University of Virginia Patent Foundation, priority 2016, published 2020).

Legend:
VMM1 melanoma cells = experiment: Cell proliferation/viability MTT assay; format: cell-based; settings: Homo sapiens, 96 hours
Procedure: (§1) Proliferation and viability of cultured cells was measured by CELLTITER96® Non-radioactive Cell Proliferation Assay (Promega Corporation; Madison, Wis., United States of America). Briefly, various wild type and mutant BRAF melanoma cells were seeded in 96 well plates and treated with pevonedistat, vemurafenib, or the combination pevonedistat and vemurafenib at various concentrations. Control cells were treated with DMSO. 96 hours following treatment, cells were stained with the dye solution according to the manufacturer's protocol. Absorbance was recorded at 570 nm and growth curves were established. To test the effect of transient exposure of melanoma cells to pevonedistat on rereplication and growth inhibition, washout experiments were conducted where melanoma cells or PIG3V melanocytes were treated with […] pevonedistat for different times (4, 8, 12, and 24 hours) before the drug was washed out by washing the cells twice with PBS, and adding drug-free fresh growth media to cells. Cells were counted every 24 hours using a COUNTESS™ Automated Cell Counter (INVITROGEN™, Carlsbad, Calif., United States of America), and harvested at the indicated times for PI staining and FACS analysis (cell cycle profile) or for immunoblotting.

VMM39 cells = experiment: Cell proliferation/viability MTT assay; format: cell-based; settings: Homo sapiens, 96 hours
Procedure: as §1

Cal27 or FaDu cells = experiment: FACS analysis of HNSCC cells (line not given); format: cell-based, human
Procedure: The effect of pevonedistat treatment or CDT2, geminin, or EMI1 knockdown on the cell cycle (and induction of DNA rereplication) was assessed by flow cytometry with propidium iodide (PI) staining. […] Cells were collected, washed with PBS, and resuspended in ethanol (75%). Cells were subsequently treated with 20 μg of DNase-free RNase and stained with PI following the manufacturer's protocol. FACSCAN™ (Becton, Dickinson and Company, Franklin Lakes, N.J., United States of America) was used to analyze the samples and G0-G1, S, and G2-M fractions were segmented. Subsequent analysis using FLOWJO® (FLOWJO, LLC, Ashland, Oreg., United States of America) and ModFit (Verity Software House, Topsham, Me., United States of America) software was used to determine apoptotic and re-replicating fractions. Where indicated, Cal27 and FaDu cells were treated with pevonedistat for 48 hours and pulsed with BrdU (10 nM) for 1 hour in the dark prior to harvesting. […] Sampled were analyzed on a FACSCAN™ (Becton, Dickinson and Company, Franklin Lakes, N.J., United States of America), and different fractions of BrdU positive cells were determined using FLOWJO® (FLOWJO, LLC, Ashland, Oreg., United States of America) and ModFit (Verity Software House, Topsham, Me., United States of America) software.

DM93 cells = experiment: Senescence-associated β-galactosidase assay; format: cell-based, human; settings: DM93, pevonedistat, as early as 48 hours post-treatment
Procedure: Senescence was monitored using β-galactosidase (β-gal) staining. Following the various treatments, cells were washed twice with PBS, fixed with 2% formaldehyde/0.2% gluteraldehyde in PBS for 15 minutes at room temperature, and washed twice with PBS. The cells were stained with fresh X-Gal solution (1 mg/ml X-gal, 40 mM C6H8O7.H2O, 5 mM K3Fe(CN)6, 5 mM K4Fe(CN)6.3H2O, 150 mM NaCl, and 2 mM MgCl2.6H2O in PBS) for 3-12 hours at 37° C. in the dark. Cells were washed three times in PBS and fixed with 100% methanol for 5 minutes at room temperature. Bright field blue color images were taken with an AMG EVOS® XL Core Imager/camera microscope (Life Technologies, Inc., Carlsbad, Calif., United States of America) counting at least 100 cells from at least 3 fields.

[1] = test system: cullin ubiquitylation substrates (CDT2, CDT1, p21, p27) in DM93 cells; experiment: Immunoblotting of cullin ubiquitylation substrates; format: cell-based, human; settings: DM93, increasing doses for 24 hours; significant levels at 1 μM
Procedure: Melanoma cells were lysed with RIPA lysis buffer (50 mM Tris, pH 8.0; 150 mM NaCl, 1% NP-40; 0.5% sodium deoxycholate; 0.1% SDS; 1 mM Benzamidine-HCl; 0.5 μg/ml Leupeptin; 0.5 μg/ml Aprotinin; 1 μg/ml pepstatin; 20 mM NaF; 20 mM Na3VO4), and equal amounts of protein were electrophoretically separated in a polyacrylamide 8-12% gel (Bio-Rad Laboratories, Inc., Hercules, Calif., United States of America), trans-blotted to a nitrocellulose membrane, and incubated overnight with primary antibodies at 4° C. The following antibodies were used: Anti-p21 (C19), anti-p27 (C19), anti-p53 (DO-1), and anti-tubulin (10D8) were purchased from Santa Cruz Biotechnology, Inc. (California, United States of America). Antibodies against SET8, CHK1, CHK2, p-CHK1 (S375), p-CHK2 (T68), H2AX and p-H2AX (γH2AX; T139), and PARP were purchased from Cell Signaling Technology, Inc. (Danvers, Mass., United States of America). Anti-Cul3 was purchased from Bethyl Laboratories (Montgomery, Tex., United States of America). Anti-CDT1 and anti-CDT2 antibodies were described before (Abbas et al., 2010). The immunoblot signals were detected by enhanced chemiluminescence. For murine melanoma xenografts, tumors were isolated, washed three times with cold PBS, and frozen at −80° C. until use. […]

SqCC/Y1 HNSCC cells = settings: SqCC/Y1, 0.5 μM pevonedistat; cited from earlier work

## NS(=O)(=O)OCC1CC(n2ccc3c(NC4CCc5ccccc54)ncnc32)CC1O [pevonedistat, ((1S,2S,4R)-4-(4-((1S)-2,3-Dihydro-H-inden-1-ylamino)-7H-pyrrolo(2,3-d)pyrimidin-7-yl)-2-hydroxycyclopentyl)methyl sulphamate]
VMM1 melanoma cells
  IC50: 330 nM
VMM39 cells
  IC50: 35 nM
Cal27 or FaDu cells; 72 hours post-treatment
  cells exhibiting sub-G1 DNA content: 5-10%
Cal27 or FaDu cells; as early as 24 hours following treatment
  concentration at which rereplication was also observed: 40 nM
DM93 cells
  senescence: majority of cells underwent senescence
[1]
  cullin ubiquitylation substrates CDT2, CDT1, p21 and p27: dose-dependent increase
SqCC/Y1 HNSCC cells
  apoptosis (% of cells): 55%
